Measurements: ChEMBL document CHEMBL1157519, “Cytotoxic acylated triterpene saponins from the husks of Xanthoceras sorbifolia” (J Nat Prod, 2008)
pIC50: −log10 of the molar value.

test system: OVCAR-3; experiment: Growth inhibition of human OVCAR-3 cells by MTT assay; assay type: functional, cell-based

SMILES	pIC50
C/C=C(/C)C(=O)O[C@H]1[C@H](OC(=O)C(C)C)[C@]2(CO)[C@H](O)[C@H](O)[C@]3(C)C(=CC[C@@H]4[C@@]5(C)CC[C@H](O[C@@H]6O[C@H](C(=O)O)[C@@H](O)[C@H](O[C@@H]7O[C@@H](CO)[C@H](O)[C@H]7O)[C@H]6O[C@@H]6O[C@H](CO)[C@H](O)[C@H](O)[C@H]6O)[C@@H](C)[C@@H]5CC[C@]43C)[C@@H]2CC1(C)C	5.38
C/C=C(/C)C(=O)O[C@H]1[C@H](OC(=O)/C(C)=C\C)[C@]2(CO)[C@H](O)C[C@]3(C)C(=CC[C@@H]4[C@@]5(C)CC[C@H](O[C@@H]6O[C@H](C(=O)O)[C@@H](O)[C@H](O[C@@H]7O[C@@H](CO)[C@H](O)[C@H]7O)[C@H]6O[C@@H]6O[C@H](CO)[C@H](O)[C@H](O)[C@H]6O)[C@@H](C)[C@@H]5CC[C@]43C)[C@@H]2CC1(C)C	5.32
C/C=C(/C)C(=O)O[C@H]1[C@H](OC(=O)/C(C)=C\C)[C@]2(CO)[C@H](O)[C@H](O)[C@]3(C)C(=CC[C@@H]4[C@@]5(C)CC[C@H](O[C@@H]6O[C@H](C(=O)O)[C@@H](O)[C@H](O[C@@H]7O[C@@H](CO)[C@H](O)[C@H]7O)[C@H]6O[C@@H]6O[C@H](CO)[C@H](O)[C@H](O)[C@H]6O)[C@@H](C)[C@@H]5CC[C@]43C)[C@@H]2CC1(C)C	5.40
C/C=C(/C)C(=O)O[C@H]1[C@H](O)[C@]2(COC(=O)C(C)CC)[C@H](O)[C@H](O)[C@]3(C)C(=CC[C@@H]4[C@@]5(C)CC[C@H](O[C@@H]6O[C@H](C(=O)O)[C@@H](O)[C@H](O[C@@H]7O[C@@H](CO)[C@H](O)[C@H]7O)[C@H]6O[C@@H]6O[C@H](CO)[C@@H](O)[C@H](O)[C@H]6O)[C@@H](C)[C@@H]5CC[C@]43C)[C@@H]2CC1(C)C (some centres undefined)	4.88
